Converted amounts (≈) assume the structure as drawn. Read-outs that look alike come from different tables or passages of the source.
Experiments:
[1] = tested on: Leukemia L-1210 cells; assay: Antitumor test against leukemia L-1210 in CDF1 mice (T/C, %); format: in vivo, mouse (CDF1); conditions: for antitumor activities (in words): compared with FT-DM, FT-ADM, adriamycin or another test compound; for % Increase in life-span (T/C, %) / mice cured and surviving for 60 days or longer / mice tested: 9 days
Description: Thus, to evaluate the antitumor effects of the new compounds according to the first aspect of this invention against experimental tumors in animals, CDF1 mice (four mice per group) were intraperitoneally transplanted with cells of Leukemia L-1210 at an amount of 1×10^5 cells/mouse. Since an elapsed time of 24 hours from the transplantation of the leukemia cells, a test compound according to this invention was administered intraperitoneally to the mice under test for 9 consecutive days once per day. […] While, mice of the control group (the untreated group) were administered with only physiological saline after the transplantation of the L-1210 cells. During the observation period, the numbers of the surviving mice in the treated group and in the control group were counted, and the mean survival days of mice in the treated group and in the control group were then calculated. From the mean survival day (C) of the untreated mice of the control group and the mean survival day (T) of the treated mice of the treated group, there were evaluated percentages (%) of the increase in the life-span of the treated mice, as T/C %. For a comparison purpose, 7-O-(2,6-dideoxy-2-fluoro-α-L-talopyranosyl)daunomycinone (abbreviation: FT-DM); 7-O-(2,6-dideoxy-2-fluoro-α-L-talopyranosyl)adriamycinone(abbreviation: FT-ADM); and adriamycin were also tested in the same manner as above. Incidentally, the mean survival day of mice of the control group (the untreated group) was amounting to 8 to 9 days, and the mean survival day of mice of the comparative groups having received the administration of adriamycin was varying dependently on the dosage of adriamycin.
Notes; Asterisks (*) indicate that development of toxicity such as
toxicityrelated death or a body weight loss was observed on the
corresponding mice tested.

[2] = tested on: mouse leukemia, P388 cells; assay: In vitro growth inhibition of P388 cells, 72 hours; format: cell-based
[3] = tested on: adriamycin-resistant P388 cells (P388/ADR); assay: In vitro growth inhibition of adriamycin-resistant P388 cells (P388/ADR), 72 hours; format: cell-based; conditions: Mus musculus, 72 hours, test compounds as trifluoroacetate, read-out: IC50
[4] = in vivo; cited from earlier work
[5] = 0.3 mg/kg/day i.p., ">" = at least one of four mice survived 60 days or longer
[6] = 0.6 mg/kg/day i.p., ">" = at least one of four mice survived 60 days or longer
[7] = 1.25 mg/kg/day i.p., ">" = at least one of four mice survived 60 days or longer
[8] = 2.5 mg/kg/day i.p., ">" = at least one of four mice survived 60 days or longer
[9] = 5 mg/kg/day i.p., ">" = at least one of four mice survived 60 days or longer
[10] = P388, 72 hours, test compounds as trifluoroacetate, read-out: IC50

COc1cccc2c1C(=O)c1c(O)c3c(c(O)c1C2=O)C[C@@](O)(C(=O)CO)C[C@@H]3O[C@@H]1O[C@@H](C)[C@@H](O)[C@@H](OC(=O)[C@H](C)N)[C@H]1F [Compound 8b, 7-O-(3-O-L-alanyl-2,6-dideoxy-2-fluoro-α-L-talopyranosyl)adriamycinone]
antitumor activities (in words) ([1]; daunomycin): remarkably improved antitumor activities in comparison with those of the parent compound, FT-ADM

COc1cccc2c1C(=O)c1c(O)c3c(c(O)c1C2=O)C[C@@](O)(C(=O)CO)C[C@@H]3O[C@@H]1O[C@@H](C)[C@@H](OC(=O)[C@H](C)N)[C@@H](O)[C@H]1F [Compound 9b, 7-O-(4-O-L-alanyl-2,6-dideoxy-2-fluoro-α-L-talopyranosyl)adriamycinone]
antitumor activities (in words) ([1]; daunomycin): remarkably improved antitumor activities in comparison with those of the parent compound, FT-ADM

COc1cccc2c1C(=O)c1c(O)c3c(c(O)c1C2=O)C[C@@](O)(C(=O)CO)C[C@@H]3O[C@@H]1O[C@@H](C)[C@@H](OC(=O)CN)[C@@H](OC(=O)CN)[C@H]1F [Compound 11a, 7-O-(2,6-dideoxy-2-fluoro-3,4-di-O-glycyl-α-L-talopyranosyl)adriamycinone]
% Increase in life-span (T/C, %) ([1]; 0.15 mg/kg/day i.p.): 111%
% Increase in life-span (T/C, %) [1, 5]: 125%
% Increase in life-span (T/C, %) [1, 6]: 170%
% Increase in life-span (T/C, %) [1, 7]: 321%
mice cured and surviving for 60 days or longer / mice tested ([1]; 2.5 mg/kg/day i.p.): 1/4
% Increase in life-span (T/C, %) [1, 8]: > 430%
mice cured and surviving for 60 days or longer / mice tested ([1]; 5 mg/kg/day i.p.): 2/4
% Increase in life-span (T/C, %) [1, 9]: > 518%
IC50 ([2]; P388, 72 h): < 0.0098 µg/mL
IC50 [3]: 0.32 µg/mL (≈ 0.473 µM)

COc1cccc2c1C(=O)c1c(O)c3c(c(O)c1C2=O)C[C@@](O)(C(=O)CO)C[C@@H]3O[C@@H]1O[C@@H](C)[C@@H](OC(=O)[C@H](C)N)[C@@H](OC(=O)[C@H](C)N)[C@H]1F [Compound 11b, 7-O-(3,4-di-O-L-alanyl-2,6-dideoxy-2-fluoro-α-L-talopyranosyl)adriamycinone]
% Increase in life-span (T/C, %) ([1]; 0.15 mg/kg/day i.p.): 115%
% Increase in life-span (T/C, %) [1, 5]: 144%
mice cured and surviving for 60 days or longer / mice tested ([1]; 0.6 mg/kg/day i.p.): 1/4
% Increase in life-span (T/C, %) [1, 6]: > 361%
mice cured and surviving for 60 days or longer / mice tested ([1]; 1.25 mg/kg/day i.p.): 1/4
% Increase in life-span (T/C, %) [1, 7]: > 407%
mice cured and surviving for 60 days or longer / mice tested ([1]; 2.5 mg/kg/day i.p.): 2/4
% Increase in life-span (T/C, %) [1, 8]: > 666%
mice cured and surviving for 60 days or longer / mice tested ([1]; 5 mg/kg/day i.p.): 2/4
% Increase in life-span (T/C, %) [1, 9]: > 502%
antitumor activities (in words) ([1]; daunomycin): a little inferior to the antitumor activities of said mixture of Compounds 8b and 9b but are yet considerably high antiumor activities
IC50 ([2]; P388, 72 h): < 0.0098 µg/mL
IC50 [3]: 0.31 µg/mL (≈ 0.44 µM)

COc1cccc2c1C(=O)c1c(O)c3c(c(O)c1C2=O)C[C@@](O)(C(=O)CO)C[C@@H]3O[C@@H]1O[C@@H](C)[C@@H](OC(=O)[C@@H](N)Cc2ccccc2)[C@@H](OC(=O)[C@@H](N)Cc2ccccc2)[C@H]1F [Compound 11c, 7-O-(2,6-dideoxy-2-fluoro-3,4-di-O-L-phenylalanyl-α-L-talopyranosyl)adriamycinone]
% Increase in life-span (T/C, %) ([1]; 0.15 mg/kg/day i.p.): 123%
% Increase in life-span (T/C, %) [1, 5]: 130%
% Increase in life-span (T/C, %) [1, 6]: 143%
% Increase in life-span (T/C, %) [1, 7]: 170%
% Increase in life-span (T/C, %) [1, 8]: 177%
% Increase in life-span (T/C, %) [1, 9]: 253%
IC50 [2, 10]: 0.026 µg/mL (≈ 0.0303 µM)
IC50 [3]: 0.14 µg/mL (≈ 0.163 µM)

COc1cccc2c1C(=O)c1c(O)c3c(c(O)c1C2=O)C[C@@](O)(C(=O)CO)C[C@@H]3O[C@@H]1O[C@@H](C)[C@@H](OC(=O)[C@@H](N)C(C)C)[C@@H](OC(=O)[C@@H](N)C(C)C)[C@H]1F [Compound 11d, 7-O-(2,6-dideoxy-2-fluoro-3,4-di-O-L-valyl-α-L-talopyranosyl)adriamycinone]
IC50 ([2]; P388, 72 h): < 0.0098 µg/mL
IC50 [3]: 0.32 µg/mL (≈ 0.421 µM)

COc1cccc2c1C(=O)c1c(O)c3c(c(O)c1C2=O)C[C@@](O)(C(=O)CO)C[C@@H]3O[C@@H]1O[C@@H](C)[C@@H](OC(=O)[C@@H](N)CC(C)C)[C@@H](OC(=O)[C@@H](N)CC(C)C)[C@H]1F [Compound 11e, 7-O-(2,6-dideoxy-2-fluoro-3,4-di-O-L-leucyl-α-L-talopyranosyl)adriamycinone]
IC50 [2, 10]: 0.032 µg/mL (≈ 0.0406 µM)
IC50 [3]: 0.27 µg/mL (≈ 0.342 µM)

COc1cccc2c1C(=O)c1c(O)c3c(c(O)c1C2=O)C[C@@](O)(C(=O)CO)C[C@@H]3O[C@@H]1O[C@@H](C(F)(F)F)[C@@H](OC(=O)CN)[C@@H](OC(=O)CN)[C@H]1F [Compound 18, 7-O-(2,6-dideoxy-2,6,6,6-tetrafluoro-3,4-di-O-glycyl-α-L-talopyranosyl)adriamycinone]
IC50 [2, 10]: < 0.0098 µg/mL
IC50 [3]: 0.28 µg/mL (≈ 0.383 µM)

COc1cccc2c1C(=O)c1c(O)c3c(c(O)c1C2=O)C[C@@](O)(C(=O)CO)C[C@@H]3O[C@H]1C[C@H](OC(=O)CN)[C@H](OC(=O)CN)[C@H](C(F)(F)F)O1 [Compound 25, 7-O-(2,6-dideoxy-6,6,6-trifluoro-3,4-di-O-glycyl-α-L-lyxo-hexopryranosyl)adriamycinone]
IC50 ([2]; P388, 72 h): < 0.0098 µg/mL

COc1cccc2c1C(=O)c1c(O)c3c(c(O)c1C2=O)C[C@@](O)(C(=O)CO)C[C@@H]3O[C@@H]1O[C@@H](C(F)(F)F)[C@@H](OC(=O)[C@H](C)N)[C@@H](OC(=O)[C@H](C)N)[C@H]1F [Compound 31, 7-O-(3,4-di-O-L-alanyl-2,6-dideoxy-2,6,6,6-tetrafluoro-α-L-talopyranosyl)adriamycinone]
IC50 [2, 10]: < 0.0098 µg/mL
IC50 [3]: 0.14 µg/mL (≈ 0.185 µM)

COc1cccc2c1C(=O)c1c(O)c3c(c(O)c1C2=O)C[C@@](O)(C(=O)CO)C[C@@H]3O[C@@H]1O[C@@H](C(F)(F)F)[C@@H](OC(=O)[C@@H](N)Cc2ccccc2)[C@@H](OC(=O)[C@@H](N)Cc2ccccc2)[C@H]1F [Compound 37, 7-O-(2,6-dideoxy-2,6,6,6-tetrafuluoro-3,4-di-O-L-phenylalanyl-α-L-talopyranosyl)adriamycinone]
IC50 [2, 10]: 0.016 µg/mL (≈ 0.0176 µM)
IC50 [3]: 0.17 µg/mL (≈ 0.187 µM)

COc1cccc2c1C(=O)c1c(O)c3c(c(O)c1C2=O)C[C@@](O)(C(=O)CO)C[C@@H]3O[C@H]1C[C@H](OC(=O)[C@H](C)N)[C@H](OC(=O)[C@H](C)N)[C@H](C(F)(F)F)O1 [Compound 43, 7-O-(3,4-di-O-L-alanyl-2,6-dideoxy-6,6,6-trifluoro-α-L-lyxo-hexopyranosyl)adriamycinone]
IC50 ([2]; P388, 72 h): < 0.0098 µg/mL
IC50 [3]: 0.22 µg/mL (≈ 0.297 µM)

COc1cccc2c1C(=O)c1c(O)c3c(c(O)c1C2=O)C[C@@](O)(C(=O)CO)C[C@@H]3O[C@H]1C[C@H](OC(=O)[C@@H](N)Cc2ccccc2)[C@H](OC(=O)[C@@H](N)Cc2ccccc2)[C@H](C(F)(F)F)O1 [Compound 49, 7-O-(2,6-dideoxy-6,6,6-trifluoro-3,4-di-O-L-phenylalanyl-α-L-lyxo-hexopyranosyl)adriamycinone]
IC50 [2, 10]: 0.02 µg/mL (≈ 0.0224 µM)
IC50 [3]: 0.28 µg/mL (≈ 0.314 µM)

COc1cccc2c1C(=O)c1c(O)c3c(c(O)c1C2=O)C[C@@](O)(C(=O)CO)C[C@@H]3O[C@@H]1O[C@@H](C)[C@@H](O)[C@@H](O)[C@H]1F [FT-ADM, 7-O-(2,6-dideoxy-2-fluoro-α-L-talopyranosyl)adriamycinone, reference compound]
% Increase in life-span (T/C, %) ([1]; 0.15 mg/kg/day i.p.): 127%
% Increase in life-span (T/C, %) [1, 5]: 182%
% Increase in life-span (T/C, %) [1, 6]: 185%
% Increase in life-span (T/C, %) [1, 7]: 275%
mice cured and surviving for 60 days or longer / mice tested ([1]; 2.5 mg/kg/day i.p.): 1/4
% Increase in life-span (T/C, %) [1, 8]: > 352%
mice cured and surviving for 60 days or longer / mice tested ([1]; 5 mg/kg/day i.p.): 4/4
% Increase in life-span (T/C, %) [1, 9]: > 740%

COc1cccc2c1C(=O)c1c(O)c3c(c(O)c1C2=O)C[C@@](O)(C(C)=O)C[C@@H]3O[C@@H]1O[C@@H](C)[C@@H](O)[C@@H](O)[C@H]1F [FT-DM, 7-O-(2,6-dideoxy-2-fluoro-α-L-talopyranosyl)daunomycinone, reference compound]
% Increase in life-span (T/C, %) ([1]; 0.15 mg/kg/day i.p.): 105%
% Increase in life-span (T/C, %) [1, 6]: 125%
% Increase in life-span (T/C, %) [1, 7]: 171%
% Increase in life-span (T/C, %) [1, 8]: 217%
% Increase in life-span (T/C, %) [1, 9]: 184%

COc1cccc2c1C(=O)c1c(O)c3c(c(O)c1C2=O)C[C@@](O)(C(C)=O)C[C@@H]3O[C@H]1C[C@H](N)[C@H](O)[C@H](C)O1 [daunomycin, reference compound]
percentage (%) of increase in life-span (T/C, %) at maximum ([1]; 2.5 mg/kg/day to 5 mg/kg/day, L-1210 mice): approximately 330%
development of toxicity (in words) ([1]; daunomycin, adriamycin 2.5 mg/kg/day to 5 mg/kg/day, L-1210 mice): being accompanied by development of toxicity
serious side-effects (in words) [4]: serious side-effects such as leukocytopenia, alopecia, myocardiopathy and others
